One data set addresses T1, CD59 (Homo sapiens, UniProt P13987).
T1 construct: Recombinant soluble human CD59 with an additional C-terminal cysteine residue
T1 sequence (P13987 26-102 limits assumed): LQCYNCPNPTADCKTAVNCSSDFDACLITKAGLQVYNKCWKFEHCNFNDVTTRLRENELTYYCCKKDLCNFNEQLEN
The data set can be described thus: SPR (Biacore S200) binding to immobilised biotinylated CD59. The settings on record: SPR, immobilized CD59. The text has this:
To identify which of these peptides bound CD59 most tightly, we used a Biacore S200 surface plasmon resonance (SPR) platform to investigate CD59 affinity (Figure 2b), using a known protein binding partner of CD59 (rILYd4) as a benchmark. Four 13‐mer macrocyclic peptides and one 14‐mer macrocyclic peptide were identified with a dissociation constant (K D) lower than that of rILYd4. Considering their fourfold lower molecular weight, these peptides bind with up to 19‐fold greater efficiency compared to rILYd4 (Figure 2b).
Equipment: SPR analysis was performed on a Cytiva Biacore S200. All buffers were prepared using ultra-pure water from a Millipore Elix Q-Gard purification system. Solutions and buffers were filtered with a 0.22 μm filter and degassed prior to use. The assays were performed on Series S streptavidin (SA) sensor chip (Cytiva). PBS-P+ buffer 10X (0.2 M phosphate buffer with 27 mM KCl, 1.37 M NaCl and 0.5% Surfactant P20 (Tween 20)) was used for the preparation of the assay running buffer (PBS-P+ 1X).
Immobilisation of CD59-biotin: Biotinylated CD59 was immobilised on the surface of a SA chip by non-covalent capture (biotin streptavidin interaction) as per the manufacturer’s instructions. The system was initially primed with running buffer and normalised using BIAnormalizing solution (70% (w/w) glycerol) (Cytiva). Before immobilising the protein, the surface was conditioned with three consecutive one-minute injections of 1 M NaCl in 50 mM NaOH. Biotinylated CD59 (0.5 µg/mL in running buffer) was flowed over the protein (active) channel for different contact times to achieve different immobilisation levels (600–1200 RU). After each protein injection, the needle and injection loop were washed using 50% isopropanol in 1 M NaCl and 50 mM NaOH. A reference channel was prepared by similar treatment; however, running buffer alone rather than CD59-biotin in running buffer was flowed over the chip the same way.
Interaction analysis: Multicycle kinetic and affinity approach was used for the analysis of peptides interactions with CD59. Two-fold serial dilutions of each peptide were prepared in running buffer and were flowed over both the ligand and reference channel using a flow rate (30 μL/min) at 25 °C. A zero concentration was added to each analyte series and three cycles of buffer were run between analytes to restore the baseline. The obtained sensorgrams were analysed using the embedded Biacore S200 Evaluation software. The data were normalised by subtracting RU values of the reference channel and zero concentration of the analyte series. Kinetic rate constants (kon and koff) were determined by fitting the normalised data using the built-in Kinetic analysis model (non-linear regression with a 1:1 Langmuir binding model), KD values were then calculated from the two rate constants ([…]). The KD values were determined again by fitting the normalised data using the built-in Affinity analysis model (1:1 Langmuir binding model).

The nature of data set [1]: Solubility and aggregation behaviour of hit peptides (stated in words). It is filed as physicochemical.
Data set [2] concerns antibody-sensitized human erythrocytes. The data set can be described thus: Enhancement of CDC lysis assay (complement dependent cytotoxicity) in antibody-sensitized erythrocytes. It is filed as cell-based. The method, then: Figure 5 CP‐06 and optimized analogues control CD59 activity in cellular assays. a) ILY lysis assay. SK‐BR‐3 cells were treated with CP‐06 (n = 4) or CP‐06[W3A] (n = 2), then with Sytox green dye and ILY ([…]). The plate was imaged immediately with the IncuCyte S3 Live Cell Analysis System and then every hour up to 14 h. The linear phase of lysis was taken from each well, and linear regression was performed to extract individual slope values, which were then normalized to maximum lysis rate (Sytox and ILY) vs. 0% lysis (Sytox only) within each plate. […] Human erythrocytes were sensitized with 1% w/v anti‐human erythrocyte Ab with 5% v/v human serum in the presence of a serial dilution of CP‐06C18 (black bars) or CP‐06scrmb‐C18 (red bars) Percent lysis enhancement was calculated by normalization to 0% enhancement (buffer well) and plotted as the mean of three biological replicates ± SEM. […]
Enhancement of CDC lysis assay: A 50% (v/v) erythrocyte stock suspension was prepared as described above. […] The following controls were included: (1) a positive control which contained Tween-20 (Cf = 1%), (2) a negative control well that contained PBS, and (3) a vehicle only well that contained PBS without erythrocytes to subtract the absorbance of the vehicle. […]

The test system of the next data set is SK-BR-3 cells. In words: ILY lysis assay (Sytox green, IncuCyte) in SK-BR-3 cells. It is filed as cell-based, human. The method, then: Figure 5 CP‐06 and optimized analogues control CD59 activity in cellular assays. a) ILY lysis assay. SK‐BR‐3 cells were treated with CP‐06 (n = 4) or CP‐06[W3A] (n = 2), then with Sytox green dye and ILY ([…]). The plate was imaged immediately with the IncuCyte S3 Live Cell Analysis System and then every hour up to 14 h. The linear phase of lysis was taken from each well, and linear regression was performed to extract individual slope values, which were then normalized to maximum lysis rate (Sytox and ILY) vs. 0% lysis (Sytox only) within each plate. […] Human erythrocytes were sensitized with 1% w/v anti‐human erythrocyte Ab with 5% v/v human serum in the presence of a serial dilution of CP‐06C18 (black bars) or CP‐06scrmb‐C18 (red bars) Percent lysis enhancement was calculated by normalization to 0% enhancement (buffer well) and plotted as the mean of three biological replicates ± SEM.
Determination of optimal ILY concentration: 20,000 SK-BR-3 cells were seeded in a 96-well plate (Grenier, 655180) 24 h before treatment. […] Any bubbles were removed by a de-bubbler and the plate was immediately transferred to IncuCyte® S3 Live Cell Analysis System where each well was imaged 4 times at 10 × magnification with phase contrast and green fluorescence (λex 440–480 nm, λem = 504–544 nm) every hour for 24 h. […]

The values that follow come from PMC12207370, “Macrocyclic Peptide Probes for Immunomodulatory Protein CD59: Potent Modulators of Bacterial Toxin Activity and Antibody‐Dependent Cytotoxicity” (Angewandte Chemie (International Ed. in English), 2025).

Numbered stars: 1 amine (or outer) side, 2 acyl side, 3 side chain; on linkers, the order of the positions; unused ones are H or OH. Bridge positions count the residues as written; N and C are the ends. Square brackets hold non-standard residues; d marks the D form. Peptide text beside a SMILES is read from it. I, II: the chains in the order shown. * marks the point of attachment. X1 = CCCCCCCCCCCCCCCCCOCCOCCOCCOCCOCCOCCOCCOCCOCCOCCOCCOCCOCCC(=O)*; CO(CH2CH2O)5CH2CH2CO = O=C(CCOCCOCCOCCOCCOCCC(=O)[*:2])[*:1]

Take `CC(C)[C@@H]1NC(=O)[C@H](CO)NC(=O)[C@H](CO)NC(=O)[C@H](CCCNC(=N)N)NC(=O)[C@H](CC(N)=O)NC(=O)CNC(=O)[C@H](Cc2c[nH]c3ccccc23)NC(=O)[C@H]([C@@H](C)O)NC(=O)[C@H](Cc2c[nH]c3ccccc23)NC(=O)[C@H](CO)NC(=O)[C@@H](Cc2ccc(O)cc2)NC(=O)CSC[C@@H](C(N)=O)NC(=O)CNC(=O)[C@H](CCCNC(=N)N)NC1=O` [CP-06] (HELM PEPTIDE1{[O=C(C[*:3])[*:2]].[dY].S.W.T.W.G.N.R.S.S.V.R.G.C.[am]}$PEPTIDE1,PEPTIDE1,1:R3-15:R3$$$V2.0): the off-rate constant (koff) on CD59 (read-out: Koff (dissociation rate constant)) is 0.0204 s⁻¹. Besides, the kon at CD59 (read-out: Kon (association rate constant)) was found to be 1.86e+06 M⁻¹ s⁻¹. The “solubility (in words)” value in data set [1] is “good solubility”.

For the molecule `CCCCCCCCCCCCCCCCCOCCOCCOCCOCCOCCOCCOCCOCCOCCOCCOCCOCCOCCC(=O)NCCCC[C@H](NC(=O)CNC(=O)[C@@H]1CSCC(=O)N[C@H](Cc2ccc(O)cc2)C(=O)N[C@@H](CO)C(=O)N[C@@H](Cc2c[nH]c3ccccc23)C(=O)N[C@@H]([C@@H](C)O)C(=O)N[C@@H](Cc2c[nH]c3ccccc23)C(=O)NCC(=O)N[C@@H](CC(N)=O)C(=O)N[C@@H](CCCNC(=N)N)C(=O)N[C@@H](CO)C(=O)N[C@@H](CO)C(=O)N[C@@H](C(C)C)C(=O)N[C@@H](CCCNC(=N)N)C(=O)NCC(=O)N1)C(=O)NCC(N)=O` [CP-06C18] ({CH2CO}-[dY]SWTWGNRSSVRGCGK(X1)G-NH2; thioether N-14), the “enhancement of mAb-mediated CDC (in words)” value in data set [2] (anti-RBC antibody, 5% human serum) is on record as “enhanced mAb‐mediated CDC in a dose‐dependent manner”. Besides, the “lysis in the absence of anti-RBC (in words)” value in data set [2] (no anti-RBC antibody, Figure S4) is “Neither peptide caused lysis above background”.

In the case of `CC(C)[C@@H]1NC(=O)[C@H](CO)NC(=O)[C@H](CO)NC(=O)[C@H](CCCNC(=N)N)NC(=O)[C@H](CC(N)=O)NC(=O)CNC(=O)[C@H](Cc2c[nH]c3ccccc23)NC(=O)[C@H]([C@@H](C)O)NC(=O)[C@H](Cc2c[nH]c3ccccc23)NC(=O)[C@H](CO)NC(=O)[C@@H](Cc2ccc(O)cc2)NC(=O)CSC[C@@H](C(=O)NCC(=O)N[C@@H](CCCCNC(=O)CCOCCOCCOCCOCCOCCC(=O)NCCCC[C@H](NC(=O)CNC(=O)[C@@H]2CSCC(=O)N[C@H](Cc3ccc(O)cc3)C(=O)N[C@@H](CO)C(=O)N[C@@H](Cc3c[nH]c4ccccc34)C(=O)N[C@@H]([C@@H](C)O)C(=O)N[C@@H](Cc3c[nH]c4ccccc34)C(=O)NCC(=O)N[C@@H](CC(N)=O)C(=O)N[C@@H](CCCNC(=N)N)C(=O)N[C@@H](CO)C(=O)N[C@@H](CO)C(=O)N[C@@H](C(C)C)C(=O)N[C@@H](CCCNC(=N)N)C(=O)NCC(=O)N2)C(=O)NCC(N)=O)C(=O)NCC(N)=O)NC(=O)CNC(=O)[C@H](CCCNC(=N)N)NC1=O` [CP-06dimer] (I: {CH2CO}-[dY]SWTWGNRSSVRGCGKG-NH2 / II: {CH2CO}-[dY]SWTWGNRSSVRGCGKG-NH2; linker I:16-II:16 via CO(CH2CH2O)5CH2CH2CO; thioether I:N-I:14, II:N-II:14), in the data set with SK-BR-3 cells, the “inhibition of ILY lysis (in words)” value is “completely inhibits ILY lysis”.

Broadly, the koff is a measure of how fast the partners let go of each other. Broadly, the kon is a measure of how fast the partners come together.
